Source: patent US9113629B2, “4-amino-6-(4-substituted-phenyl)-picolinates and 6-amino-2-(4-substituted-phenyl)-pyrimidine-4-carboxylates and their use as herbicides” (DOW AGROSCIENCES LLC, priority 2013, dated 2015)
Read-outs that look alike come from different tables or passages of the source.

Columns and labels:
[1] = tested on: Key Grass and Sedge Weeds as well as Grass Crops; test: Post-emergent Test II herbicidal activity (Table 6); assay type: in vivo; conditions: post-emergence, 336 h; for pest or weed control at 70 g/ha: application rate 70 g ai/ha; for pest or weed control at 140 g/ha: application rate 140 g ai/ha
Method in brief: (§1)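 Spray rates: a highest rate plus ½×, ¼×, ⅛×, 1/16×, all delivered at 187 L/ha to plants at the first–second true leaf stage. Readout is a visual percent injury score at 14 d, where 100 means complete kill.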

[2] = tested on: Key Broadleaf Weed and Crop Species; test: Post-emergent Test II herbicidal activity (Table 5); assay type: in vivo; conditions: post-emergence, 336 h, 14 days after application
Method in brief: as §1

[3] = CYPES: yellow nutsedge (Cyperus esculentus), read-out: Visual Growth Reduction (%) 14 Days After Application, CYPES
[4] = DIGSA: crabgrass (Digitaria sanguinalis), read-out: Visual Growth Reduction (%) 14 Days After Application, DIGSA
[5] = ECHCG: barnyardgrass (Echinochloa crus-galli), read-out: Visual Growth Reduction (%) 14 Days After Application, ECHCG
[6] = ORYSA: rice (Oryza sativa), read-out: Visual Growth Reduction (%) 14 Days After Application, ORYSA
[7] = SETFA: giant foxtail (Setaria faberi), read-out: Visual Growth Reduction (%) 14 Days After Application, SETFA
[8] = SORVU: grain sorghum (Sorghum vulgare), read-out: Visual Growth Reduction (%) 14 Days After Application, SORVU
[9] = TRZSS (wheat, Triticum aestivum), read-out: Visual Growth Reduction (%) 14 Days After Application, TRZSS
[10] = ZEAMX: maize, corn (Zea mays), read-out: Visual Growth Reduction (%) 14 Days After Application, ZEAMX
[11] = Triticum aestivum, TRZSS (wheat), read-out: Visual Growth Reduction (%) 14 Days After Application, TRZSS

Q: Which melting point does the source give for C=Cc1c(N)nc(-c2ccc(I)cc2)nc1C(=O)O [Compound 123, 6-Amino-2-(4-iodophenyl)-5-vinylpyrimidine-4-carboxylic acid] here?
A: 187 to 190 °C

Q: And the pest or weed control at 70 g/ha [1, 3]?
A: 0 to 29%

Q: And the pest or weed control at 140 g/ha [1, 3]?
A: 45 to 59%

Q: And the pest or weed control at 70 g/ha [1, 4]?
A: 0 to 29%

Q: What about the pest or weed control at 140 g/ha [1, 4] of the same compound?
A: 0 to 29%

Q: What about the pest or weed control at 70 g/ha [1, 5] of the same compound?
A: 75 to 84%

Q: And the pest or weed control at 140 g/ha [1, 5]?
A: 85 to 94%

Q: And the pest or weed control at 70 g/ha [1, 6]?
A: 0 to 29%

Q: What about the pest or weed control at 140 g/ha [1, 6] of the same compound?
A: 0 to 29%

Q: What about the pest or weed control at 70 g/ha [1, 7] of the same compound?
A: 0 to 29%

Q: And the pest or weed control at 140 g/ha [1, 7]?
A: 0 to 29%

Q: And the pest or weed control at 70 g/ha [1, 8]?
A: 30 to 44%

Q: And the pest or weed control at 140 g/ha [1, 8]?
A: 30 to 44%

Q: What about the pest or weed control at 70 g/ha [1, 9] of the same compound?
A: 0 to 29%

Q: What about the pest or weed control at 140 g/ha [1, 9] of the same compound?
A: 0 to 29%

Q: What about the pest or weed control at 70 g/ha [1, 10] of the same compound?
A: 45 to 59%

Q: What about the pest or weed control at 140 g/ha [1, 10] of the same compound?
A: 60 to 74%

Q: What about the pest or weed control at 70 g/ha ([2]; ABUTH: velvetleaf (Abutilon theophrasti), 70 g ai/ha, post-emergent, read-out: Visual Growth Reduction (%) 14 Days After Application ABUTH) of the same compound?
A: 0 to 29%

Q: What about the pest or weed control at 140 g/ha ([2]; ABUTH: velvetleaf (Abutilon theophrasti), 140 g ai/ha, post-emergent, read-out: Visual Growth Reduction (%) 14 Days After Application ABUTH) of the same compound?
A: 0 to 29%

Q: What about the pest or weed control at 70 g/ha ([2]; AMARE: redroot pigweed (Amaranthus retroflexus), 70 g ai/ha, post-emergent, read-out: Visual Growth Reduction (%) 14 Days After Application AMARE) of the same compound?
A: 95 to 100%

Q: And the pest or weed control at 140 g/ha ([2]; AMARE: redroot pigweed (Amaranthus retroflexus), 140 g ai/ha, post-emergent, read-out: Visual Growth Reduction (%) 14 Days After Application AMARE)?
A: 95 to 100%

Q: And the pest or weed control at 70 g/ha ([2]; BRSNN: oilseed-rape, canola (Brassica napus), 70 g ai/ha, post-emergent, read-out: Visual Growth Reduction (%) 14 Days After Application BRSNN)?
A: 0 to 29%

Q: What about the pest or weed control at 140 g/ha ([2]; BRSNN: oilseed-rape, canola (Brassica napus), 140 g ai/ha, post-emergent, read-out: Visual Growth Reduction (%) 14 Days After Application BRSNN) of the same compound?
A: 60 to 74%

Q: And the pest or weed control at 70 g/ha ([2]; CHEAL: lambsquarters (Chenopodium album), 70 g ai/ha, post-emergent, read-out: Visual Growth Reduction (%) 14 Days After Application CHEAL)?
A: 0 to 29%

Q: And the pest or weed control at 140 g/ha ([2]; CHEAL: lambsquarters (Chenopodium album), 140 g ai/ha, post-emergent, read-out: Visual Growth Reduction (%) 14 Days After Application CHEAL)?
A: 0 to 29%

Q: And the pest or weed control at 70 g/ha ([2]; EPHHL: wild poinsettia (Euphorbia heterophylla), 70 g ai/ha, post-emergent, read-out: Visual Growth Reduction (%) 14 Days After Application EPHHL)?
A: 95 to 100%

Q: What about the pest or weed control at 140 g/ha ([2]; EPHHL: wild poinsettia (Euphorbia heterophylla), 140 g ai/ha, post-emergent, read-out: Visual Growth Reduction (%) 14 Days After Application EPHHL) of the same compound?
A: 95 to 100%

Q: What about the pest or weed control at 70 g/ha ([2]; HELAN: sunflower (Helianthus annuus), 70 g ai/ha, post-emergent, read-out: Visual Growth Reduction (%) 14 Days After Application HELAN) of the same compound?
A: 75 to 84%

Q: What about the pest or weed control at 140 g/ha ([2]; HELAN: sunflower (Helianthus annuus), 140 g ai/ha, post-emergent, read-out: Visual Growth Reduction (%) 14 Days After Application HELAN) of the same compound?
A: 75 to 84%

Q: And the pest or weed control at 70 g/ha ([2]; VIOTR: wild pansy (Viola tricolor), 70 g ai/ha, post-emergent, read-out: Visual Growth Reduction (%) 14 Days After Application VIOTR)?
A: 0 to 29%

Q: And the pest or weed control at 140 g/ha ([2]; VIOTR: wild pansy (Viola tricolor), 140 g ai/ha, post-emergent, read-out: Visual Growth Reduction (%) 14 Days After Application VIOTR)?
A: 45 to 59%

Q: Which melting point does the source give for COc1c(N)nc(-c2ccc(Br)c(F)c2F)nc1C(=O)O [Compound 8] here?
A: 126 to 128 °C (dec.)

Q: And the pest or weed control at 70 g/ha [1, 11]?
A: 60 to 74%

Q: What about the pest or weed control at 140 g/ha [1, 11] of the same compound?
A: 75 to 84%

Q: And the pest or weed control at 70 g/ha [1, 3]?
A: 95 to 100%

Q: What about the pest or weed control at 140 g/ha [1, 3] of the same compound?
A: 95 to 100%

Q: What about the pest or weed control at 70 g/ha [1, 4] of the same compound?
A: 75 to 84%

Q: And the pest or weed control at 140 g/ha [1, 4]?
A: 85 to 94%

Q: What about the pest or weed control at 70 g/ha [1, 5] of the same compound?
A: 85 to 94%

Q: And the pest or weed control at 140 g/ha [1, 5]?
A: 85 to 94%

Q: What about the pest or weed control at 70 g/ha [1, 6] of the same compound?
A: 30 to 44%

Q: And the pest or weed control at 140 g/ha [1, 6]?
A: 45 to 59%

Q: And the pest or weed control at 70 g/ha [1, 7]?
A: 75 to 84%

Q: And the pest or weed control at 140 g/ha [1, 7]?
A: 95 to 100%

Q: And the pest or weed control at 70 g/ha [1, 8]?
A: 95 to 100%

Q: What about the pest or weed control at 140 g/ha [1, 8] of the same compound?
A: 95 to 100%

Q: And the pest or weed control at 70 g/ha [1, 10]?
A: 60 to 74%

Q: And the pest or weed control at 140 g/ha [1, 10]?
A: 85 to 94%

Q: And the pest or weed control at 70 g/ha ([2]; ABUTH: velvetleaf (Abutilon theophrasti), application rate 70 g ai/ha, read-out: Visual Growth Reduction (%) 14 Days After Application, ABUTH)?
A: 95 to 100%

Q: What about the pest or weed control at 140 g/ha ([2]; ABUTH: velvetleaf (Abutilon theophrasti), application rate 140 g ai/ha, read-out: Visual Growth Reduction (%) 14 Days After Application, ABUTH) of the same compound?
A: 95 to 100%

Q: What about the pest or weed control at 70 g/ha ([2]; AMARE: redroot pigweed (Amaranthus retroflexus), application rate 70 g ai/ha, read-out: Visual Growth Reduction (%) 14 Days After Application, AMARE) of the same compound?
A: 95 to 100%

Q: What about the pest or weed control at 140 g/ha ([2]; AMARE: redroot pigweed (Amaranthus retroflexus), application rate 140 g ai/ha, read-out: Visual Growth Reduction (%) 14 Days After Application, AMARE) of the same compound?
A: 95 to 100%

Q: And the pest or weed control at 70 g/ha ([2]; BRSNN: oilseed-rape, canola (Brassica napus), application rate 70 g ai/ha, read-out: Visual Growth Reduction (%) 14 Days After Application, BRSNN)?
A: 95 to 100%

Q: And the pest or weed control at 140 g/ha ([2]; BRSNN: oilseed-rape, canola (Brassica napus), application rate 140 g ai/ha, read-out: Visual Growth Reduction (%) 14 Days After Application, BRSNN)?
A: 95 to 100%

Q: What about the pest or weed control at 70 g/ha ([2]; CHEAL: lambsquarters (Chenopodium album), application rate 70 g ai/ha, read-out: Visual Growth Reduction (%) 14 Days After Application, CHEAL) of the same compound?
A: 95 to 100%

Q: And the pest or weed control at 140 g/ha ([2]; CHEAL: lambsquarters (Chenopodium album), application rate 140 g ai/ha, read-out: Visual Growth Reduction (%) 14 Days After Application, CHEAL)?
A: 95 to 100%

Q: And the pest or weed control at 70 g/ha ([2]; EPHHL: wild poinsettia (Euphorbia heterophylla), application rate 70 g ai/ha, read-out: Visual Growth Reduction (%) 14 Days After Application, EPHHL)?
A: 95 to 100%

Q: What about the pest or weed control at 140 g/ha ([2]; EPHHL: wild poinsettia (Euphorbia heterophylla), application rate 140 g ai/ha, read-out: Visual Growth Reduction (%) 14 Days After Application, EPHHL) of the same compound?
A: 95 to 100%

Q: And the pest or weed control at 70 g/ha ([2]; HELAN: sunflower (Helianthus annuus), application rate 70 g ai/ha, read-out: Visual Growth Reduction (%) 14 Days After Application, HELAN)?
A: 95 to 100%

Q: And the pest or weed control at 140 g/ha ([2]; HELAN: sunflower (Helianthus annuus), application rate 140 g ai/ha, read-out: Visual Growth Reduction (%) 14 Days After Application, HELAN)?
A: 95 to 100%

Q: What about the pest or weed control at 70 g/ha ([2]; VIOTR: wild pansy (Viola tricolor), application rate 70 g ai/ha, read-out: Visual Growth Reduction (%) 14 Days After Application, VIOTR) of the same compound?
A: 95 to 100%

Q: And the pest or weed control at 140 g/ha ([2]; VIOTR: wild pansy (Viola tricolor), application rate 140 g ai/ha, read-out: Visual Growth Reduction (%) 14 Days After Application, VIOTR)?
A: 95 to 100%
